Literature values, collected in patent US20040258778A1, “Lactation cessation and breast engorgement compositions and method of use” (priority 2003, published 2004).

Test system: lactating women

CC(C)C[C@H]1C(=O)N2CCC[C@H]2[C@]2(O)O[C@](NC(=O)[C@@H]3C=C4c5cccc6[nH]c(Br)c(c56)C[C@H]4N(C)C3)(C(C)C)C(=O)N12 [bromocriptine]
rebound engorgement, share of the time (after a two-week course of treatment ends, according to the official labeling): up to 40% | very serious side effects reported (use to suppress lactation (Iffy, 1998)): strokes, seizures (convulsions), intracranial bleeding, cerebral edema, and heart attacks
